{"source": "patent US12042503B2", "about": "“Compositions and methods for treating coronavirus infections” (priority 2020, dated 2024)", "key": {"[1]": {"experiment": "Stability of GP1681 dosing formulations at room temperature by UHPLC", "format": "physicochemical", "settings": "10% (w/v) PEG 400 in calcium and magnesium free PBS, pH 7.4; 0.0319 and 0.0596 mg/mL", "protocol": "GP1681 in 10% (w/v) polyethylene glycol (PEG) 400 in calcium and magnesium free phosphate buffered saline (PBS), pH 7.4 was used for evaluation by ultra-high performance liquid chromatography (UHPLC; Agilent 1290 UHPLC instrument).\nDosing formulations of GP1681 (0, 0.01, 0.03, and 0.05 mg/mL) in 10% (w/v) PEG 400 in calcium and magnesium free PBS, pH 7.4 were collected and analyzed by UHPLC to assess accuracy of the preparation. Aliquots from the top, middle and bottom of the formulations were collected and analyzed to assess homogeneity of the formulations. The dosing formulations were diluted to bring the test article concentration to a suitable level within the calibration range. The samples were initially analyzed on the day of preparation. However, due to unacceptable results observed, the backup samples (stored at −10 to −30° C.) were analyzed five days later.\nThe concentration of GP1681 was calculated by reference to the solvent standard solutions prepared and analyzed concurrently with the dosing formulations. […]\nStability of the dosing formulations was determined by storing the middle aliquots of the high and low primary dose formulation samples in the Definitive Assay at room temperature for 3.7 hours and reanalyzing as described above. The results met the acceptance criterion of 90-110% of the concentration determined at T=0."}, "[2]": {"target": "T1, TP receptor (TBAX2R) (Homo sapiens, UniProt P21731)", "T1 construct": "host or cells: PathHunter beta-arrestin cell line", "T1 sequence (P21731 1-343)": "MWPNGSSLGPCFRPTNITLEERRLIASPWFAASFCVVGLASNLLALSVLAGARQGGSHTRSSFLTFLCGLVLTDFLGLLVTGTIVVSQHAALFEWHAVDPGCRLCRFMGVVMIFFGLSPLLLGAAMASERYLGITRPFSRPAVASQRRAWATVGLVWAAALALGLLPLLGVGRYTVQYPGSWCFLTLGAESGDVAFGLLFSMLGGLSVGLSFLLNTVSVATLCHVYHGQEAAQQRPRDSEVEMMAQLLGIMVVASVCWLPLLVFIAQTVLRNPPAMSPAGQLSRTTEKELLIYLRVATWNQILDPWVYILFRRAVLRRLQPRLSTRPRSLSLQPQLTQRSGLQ", "experiment": "PathHunter beta-arrestin cell-based prostanoid receptor assay, TP", "protocol": "(§1) DiscoverX cell-based ligand binding assays were performed in the PathHunter beta-arrestin (EP1, EP2, EP3, EP4, FP, IP, and TP receptors) or cAMP Hunter™ (DP receptor) cell lines.\n(§2) Receptor binding studies were performed in either the PathHunter® b-Arrestin (EP1, EP2, EP3, EP4, FP, IP, and TP receptors) or cAMP Hunter™ (DP receptor) cell lines. A 10 mM working stock of GP1681 was created in 1×PBS, pH 7.4. All assays were carried out in duplicate with 10 individual concentrations of GP1681. A three-fold dilution series of GP1681 was established for the initial or pilot experiment with a starting concentration of 4 uM (starting concentration was chosen based on previous Gemmus Pharma preclinical experimental results).\n(§3) GP1681 was incubated with cells lines at either 37° C. or room temperature, for 90-180 minutes (temperatures and incubation times are all dependent on established optimized procedures for each receptor cell line) after which cell wells were processed and signal production detected. […] Vehicle only controls (PBS, pH 7.4) were also included for each receptor cell line. Receptor binding activity was analyzed using CBIS data analysis suite (ChemInnovation, CA). The percentage of activity was calculated using the following formula: % Activity=100%×(mean RLU of test sample−mean RLU of vehicle control)/(mean MAX control ligand−mean RLU of vehicle control). Dose curves were performed and EC50 values determined."}, "[3]": {"target": "T2, EP3 receptor (PTGER3) (Homo sapiens, UniProt P43115)", "T2 construct": "host or cells: PathHunter beta-arrestin cell line", "T2 sequence (P43115 1-390)": "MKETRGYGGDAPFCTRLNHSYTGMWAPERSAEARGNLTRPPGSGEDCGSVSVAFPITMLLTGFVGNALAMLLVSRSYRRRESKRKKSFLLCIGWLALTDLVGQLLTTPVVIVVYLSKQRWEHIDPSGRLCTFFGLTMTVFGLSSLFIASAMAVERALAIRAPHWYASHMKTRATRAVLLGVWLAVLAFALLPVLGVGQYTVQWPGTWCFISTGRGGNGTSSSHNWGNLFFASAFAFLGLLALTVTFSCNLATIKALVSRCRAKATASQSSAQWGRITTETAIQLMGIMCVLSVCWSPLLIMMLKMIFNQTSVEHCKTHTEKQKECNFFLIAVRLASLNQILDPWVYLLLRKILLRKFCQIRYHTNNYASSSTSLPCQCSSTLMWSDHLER", "experiment": "PathHunter beta-arrestin cell-based prostanoid receptor assay, EP3", "settings": "β-Arrestin", "protocol": "as §1, §2\nGP1681 was incubated with cells lines at either 37° C. or room temperature, for 90-180 minutes (temperatures and incubation times are all dependent on established optimized procedures for each receptor cell line) after which cell wells were processed and signal production detected. […] Receptor binding activity was analyzed using CBIS data analysis suite (ChemInnovation, CA). The percentage of activity was calculated using the following formula: % Activity=100%×(mean RLU of test sample−mean RLU of vehicle control)/(mean MAX control ligand−mean RLU of vehicle control). Dose curves were performed and EC50 values determined. […]"}, "[4]": {"target": "T3, EP1 receptor (PTGER1) (Homo sapiens, UniProt P34995)", "T3 construct": "host or cells: PathHunter beta-arrestin cell line", "T3 sequence (P34995 1-402)": "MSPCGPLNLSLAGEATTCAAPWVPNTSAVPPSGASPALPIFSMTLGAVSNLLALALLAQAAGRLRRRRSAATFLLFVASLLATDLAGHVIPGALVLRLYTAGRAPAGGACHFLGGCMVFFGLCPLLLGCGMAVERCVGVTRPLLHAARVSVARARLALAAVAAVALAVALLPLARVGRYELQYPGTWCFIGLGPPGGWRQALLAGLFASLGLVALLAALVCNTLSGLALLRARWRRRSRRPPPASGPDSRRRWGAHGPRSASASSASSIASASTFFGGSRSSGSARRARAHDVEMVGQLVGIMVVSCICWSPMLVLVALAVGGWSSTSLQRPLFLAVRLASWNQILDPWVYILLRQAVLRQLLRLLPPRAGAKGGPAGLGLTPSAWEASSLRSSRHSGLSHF", "experiment": "PathHunter beta-arrestin cell-based prostanoid receptor assay, EP1", "settings": "β-Arrestin", "protocol": "as §1, §2, §3\nThe four assays were repeated with a higher starting concentration.\nThe second experimental run of the receptor binding assay was performed with these last four cell lines including GP1681 and their respective positive and negative (vehicle, PBS pH 7.4) controls. A 10 mM GP1681 working stock was again created in 1×PBS, pH 7.4. A three-fold serial dilution scheme was again used for GP1681 samples, starting this time at a concentration of 500 μM. The remainder of the second experimental run was performed in the same manner as run 1."}, "[5]": {"settings": "Run 1, GP1681 starting concentration 4 uM, curve for GP1681 not fully sigmoidal"}, "[6]": {"settings": "Run 2, GP1681 starting concentration 500 μM"}}, "data": [{"smiles": "CC#CCC(C)C(O)C=CC1C(O)CC2Oc3c(CCCC(=O)O)cccc3C21", "note": "(single isomer, unassigned) [GP1681, esuberaprost]", "values": [{"measurement": "stable at room temperature", "setting": "[1]", "result": "at least 3.7 hours"}, {"measurement": "binding to TP receptor, in words", "setting": "[2]", "result": "does not bind"}, {"measurement": "EC50", "setting": "[2]; Run 1, GP1681 starting concentration 4 uM, β-Arrestin", "result": "> 4", "unit": "µM"}, {"measurement": "EC50", "setting": "[3]; [5]", "result": 1.83, "unit": "µM"}, {"measurement": "EC50", "setting": "[3]; [6]", "result": 5.39, "unit": "µM"}, {"measurement": "EC50", "setting": "[4]; [5]", "result": 1.08, "unit": "µM"}, {"measurement": "EC50", "setting": "[4]; [6]", "result": 7.81, "unit": "µM"}]}]}
